Data set [1] can be described thus: Inhalation studies, single and repeated dosing. It counts as in vivo, cynomolgus monkey. As to conditions: inhaled CA28. The protocol:
(§1) Inhalation studies of single dose or repeated dosing were conducted in dog and cynomolgus monkey. […] These doses were 25 mg/kg/d in a 7 day repeated dose study in the dog, 80 mg/kg in a single dose study in the monkey, and 30 mg/kg/day in a 14 day repeated dose in the monkey.

The nature of data set [2]: Inhalation study, repeated dosing. It is filed as in vivo, dog. Conditions: 25 mg/kg/d, 7 day repeated dose, inhaled CA28. The protocol:
as §1

Data set [3] can be described thus: Phase 1 single and multiple ascending dose trial, inhaled (nebulized), healthy volunteers. It counts as in vivo, human. The method, then: In the single ascending dose part of the trial, 16 subjects were enrolled in four cohorts of four subjects each.
Four subjects were enrolled in the first cohort of the multiple ascending dose part of the trial. These subjects were to receive 14 consecutive days of treatment with a 60 mg/day dose of the drug. […] The trial was paused and subsequently resumed, with subjects receiving 30 mg/day. […] The trial was then terminated.

A further data set relates to complement activation. Conditions: relative to compstatin amidated at the C-terminus; published data; cited from earlier work.

Non-standard residues stand in square brackets, D forms with d. Trp(5-F) = N[C@@H](Cc1c[nH]c2ccc(F)cc12)C(=O)O; Trp(6-F) = N[C@@H](Cc1c[nH]c2cc(F)ccc12)C(=O)O; Bpa = N[C@@H](Cc1ccc(C(=O)c2ccccc2)cc1)C(=O)O; 1Nal = N[C@@H](Cc1cccc2ccccc12)C(=O)O; 2Nal = N[C@@H](Cc1ccc2ccccc2c1)C(=O)O; Igl = N[C@H](C(=O)O)C1Cc2ccccc2C1

With `CC[C@H](C)[C@H](NC(C)=O)C(=O)N[C@H]1CSSC[C@@H](C(=O)N[C@H](C(N)=O)[C@@H](C)O)NC(=O)[C@H](CCCNC(=N)N)NC(=O)[C@H](Cc2cnc[nH]2)NC(=O)[C@H](C)NC(=O)CNC(=O)[C@H](Cc2c[nH]c3ccccc23)NC(=O)[C@H](CC(=O)O)NC(=O)[C@H](CCC(N)=O)NC(=O)[C@H](Cc2cn(C)c3ccccc23)NC(=O)[C@H](C(C)C)NC1=O` [CA28], the “findings at the highest inhaled dose tested” value is on record as “no drug-related findings” in data set [1] (30 mg/kg/day, 14 day repeated dose); “no drug-related findings” in data set [1] (80 mg/kg, single dose); “no drug-related findings” in data set [2]. Moreover, the “adverse event possibly related to the pharmacology of the drug” value in data set [3] (inhaled CA28 30 mg/day, after 10 days of treatment) is “Another subject developed signs and symptoms consistent with a potential bacterial infection”; in data set [3] (inhaled CA28 60 mg/day, following nine days of treatment), “one subject developed signs and symptoms consistent with a potential bacterial infection”.
In the case of “Ac-ICV(2-lgl)QDWGAHRCT-CONH2 (Ac-ICV[Igl]QDWGAHRCT-NH2; not fully specified (bridges); printed as Ac-ICV(2-lgl)QDWGAHRCT-CONH2; cysteine pairing not given here) [Ac-V42lgl/H9A]”, the Activity over compstatin with complement activation is 39xmore.
On to “Ac-ICV(Bpa)QDWGAHRCT-COOH (Ac-ICV[Bpa]QDWGAHRCT-OH; not fully specified (bridges); printed as Ac-ICV(Bpa)QDWGAHRCT-COOH; cysteine pairing not given here) [Ac-V4(Bpa)/H9A-OH]”, for which the Activity over compstatin with complement activation is listed as 49xmore.
As to “Ac-ICV(Bpa)QDWGAHRCT-CONH2 (Ac-ICV[Bpa]QDWGAHRCT-NH2; not fully specified (bridges); printed as Ac-ICV(Bpa)QDWGAHRCT-CONH2; cysteine pairing not given here) [Ac-V4(Bpa)/H9A]”, the Activity over compstatin with complement activation is 86xmore.
For Ac-ICVYQDWGAHRCT-CONH2 [Ac-V4Y/H9A], the Activity over compstatin with complement activation is 14xmore.
As for Ac-ICVWQDWGAHRCT-CONH2 [Ac-V4W/H9A], in the data set on complement activation, the Activity over compstatin is 45xmore.
On to “Ac-ICV(2-Nal)QDWGAHRCT-CONH2 (Ac-ICV[2Nal]QDWGAHRCT-NH2; not fully specified (bridges); printed as Ac-ICV(2-Nal)QDWGAHRCT-CONH2; cysteine pairing not given here) [Ac-V4(2-Nal)/H9A]”, for which the Activity over compstatin in the data set on complement activation is 99xmore.
In the case of “Ac-ICV(2-Nal)QDWGAHRCT-COOH (Ac-ICV[2Nal]QDWGAHRCT-OH; not fully specified (bridges); printed as Ac-ICV(2-Nal)QDWGAHRCT-COOH; cysteine pairing not given here) [Ac V4(2-Nal)/H9A-OH]”, in the data set on complement activation, the Activity over compstatin is 38xmore.
Regarding “Ac-ICV(5fW)QDWGAHRCT-CONH2 [Ac-V4(5fW)/H9A]”, the Activity over compstatin in the data set with complement activation is given as 31xmore.
Consider Ac-ICVVQDWGHHRCT-CONH2 [Ac-compstatin], for which the Activity over compstatin in the data set with complement activation is listed as 3xmore.
Regarding “Ac-ICV(5-methyl-W)QDWGAHRCT-CONH2 [Ac-V4(5-MeW)/H9A]”, the Activity over compstatin in the data set with complement activation is recorded as 67xmore.
In the case of “Ac-ICV(1-Nal)QDWGAHRCT-COOH (Ac-ICV[1Nal]QDWGAHRCT-OH; not fully specified (bridges); printed as Ac-ICV(1-Nal)QDWGAHRCT-COOH; cysteine pairing not given here) [Ac V4(1-Nal)/H9A-OH]”, the Activity over compstatin in the data set on complement activation is 30xmore.
With “Ac-ICVDhtQDWGAHRCT-COOH [Ac-V4Dht/H9A-OH]”, in the data set on complement activation, the Activity over compstatin is 5xmore.
Turning to “Ac-ICV(2-lgl)QDWGAHRCT-COOH (Ac-ICV[Igl]QDWGAHRCT-OH; not fully specified (bridges); printed as Ac-ICV(2-lgl)QDWGAHRCT-COOH; cysteine pairing not given here) [Ac-V42lgl/H9A-OH]”, the Activity over compstatin in the data set on complement activation is 37xmore.
Take “H-GICV(6fW)QD(6fW)GAHRCTN-COOH (H-GICV[Trp(6-F)]QD[Trp(6-F)]GAHRCTN-OH; not fully specified (bridges); cysteine pairing not given here) [+G/V4(6fW)/W7(6fW)H9A + N-OH]”: the Activity over compstatin in the data set with complement activation was 126xmore.
Consider “H-GICV(5fW)QD(5fW)GAHRCTN-COOH (H-GICV[Trp(5-F)]QD[Trp(5-F)]GAHRCTN-OH; not fully specified (bridges); cysteine pairing not given here) [G/V4(5f-W)/W7(5fW)/H9A + N-OH]”, for which the Activity over compstatin in the data set with complement activation is recorded as 112xmore.
Take “Ac-ICVWQDWGAHRCdT-COOH [Ac-V4W/H9A/T13dT-OH]”: the Activity over compstatin in the data set on complement activation is recorded as 55xmore.
As for “Ac-ICVWQD(5fW)GAHRCT-CONH2 [Ac-V4W/W7(5fW)/H9A]”, the Activity over compstatin in the data set with complement activation is listed as 121xmore.

The values above are taken from patent US11903994B2, “Dosing regimens” (Apellis Pharmaceuticals, Inc., priority 2015, dated 2024).
